Test results published in patent EP3253400B1, “OLEANOYL PEPTIDE COMPOSITION” (Majeed, Muhammed, priority 2015, dated 2023).
No end group written: not given here.

How the values were obtained:
[1] = tested on: Transforming Growth Factor-β (TGF- β); experiment: TGF-β production by Human Dermal Fibroblast cells, ELISA; type: cell-based; conditions: HDF cells, graded concentrations, 48 hrs, vs un-treated cells; values only in Fig. 1
Procedure: (§1) Evaluation of Transforming Growth factor beta (TGF-β) and Fibroblast Growth Factor (FGF): Human Dermal Fibroblast (HDF) cells were cultured in DMEM medium with 10% FBS and seeded in 96 well tissue culture plate for the test. […] After 48hrs the supernatant was collected from each well. The amount of TGF-β and FGF produced by the various treated HDF was quantified using ELISA method according to the kit protocol provided by the manufacturer (R&D Systems) and absorbance was measured at 450 nm using Fluostar Optima. Standard curve was generated by plotting absorbance values of standards against appropriate TGF-β/ FGF concentrations. TGF-β/ FGF concentrations of the control and test samples were calculated from the standard graph equation. Percentage increase of expression in test samples was calculated with respect to un-treated cells. The results of the experiment are exemplified in Figs. 1 and 2 respectively. The importance of TGF- β1 in the synthesis of extracellular matrix in well established in • 1. Yang T et al, "miR-29 mediates TGFβ1-induced extracellular matrix synthesis through activation of PI3K-AKT pathway in human lung fibroblasts", J Cell Biochem. 2013 Jun;114(6):1336-42; • 2. Tan J et al, "MicroRNA-29 mediates TGFβ1-induced extracellular matrix synthesis by targeting wnt/β-catenin pathway in human orbital fibroblasts." Int J Clin Exp Pathol. 2014 Oct 15;7(11):7571-7; • 3. […]

Fibroblast Growth Factor = experiment: FGF production by Human Dermal Fibroblast cells, ELISA; type: cell-based; conditions: HDF cells, graded concentrations, 48 hrs, vs un-treated cells; values only in Fig. 2
Procedure: as §1

HSP-90 = experiment: Gene expression analysis, full-thickness in vitro skin culture model (EFT-400), qPCR; type: cell-based, human; conditions: EFT-400 culture, 100 µL applied, 24 hours; values only in Fig. 3
Source text: (§2) Each culture was visually inspected to ensure even distribution.

LOX = experiment: as above; type: cell-based, human; conditions: EFT-400 culture, 100 µL applied, 24 hours; values only in Fig. 4
Source text: as §2

TIMP = experiment: as above; type: cell-based, human; conditions: EFT-400 culture, 100 µL applied, 24 hours; values only in Fig. 6
Source text: as §2

AQP5 = conditions: gene AQP5 (aquaporin 5); EFT-400 culture, 100 µL applied, 24 hours
Procedure: (§3) The objective of the study was to understand how application of test composition containing peptide of SEQ ID No. 1 linked to oleanolic acid represented by STR#1 influences gene expression in the skin. The current study was conducted using a full-thickness in vitro skin culture model (EFT-400, MatTek). One hundred microliters of Test Material was applied to the surface of each test culture and incubated for a period of 24 hours.
(§4) Treatment and Maintenance of cultures: 100 µL of test composition containing peptide of SEQ ID No. 1 linked to oleanolic acid represented by STR#1 was applied to the center of each EFT-400 culture. A sterile glass spreader was used to distribute the Test Material. Each culture was visually inspected to ensure even distribution. Following application, the cultures were returned to the incubator at 37°C with 5% CO2 for 24 hours. After 24 hours, the Test Materials were washed from the surface of each culture with sterile PBS. Following removal of test material, each culture was cut into quarters and placed into RNA solution.
(§5) RNA Isolation: RNA was isolated from tissues using a Maxwell 16 LEV RNA Tissue kit following the manufacturer's instructions (Promega) and vacuum concentrated until >200ng/uL as required for OpenArray processing. RNA concentration and purity were determined using a Nanodrop 2000 spectrophotometer. cDNA synthesis: cDNA was generated using a High Capacity cDNA Synthesis Kit according to the manufacturer's instructions for OpenArray processing (Life Technologies).
(§6) qPCR Processing: qPCR reactions were run using validated Taqman gene expression assays in an OpenArray format. OpenArrays were run in a Life Technologies QuantStudio 12K Flex instrument.
(§7) Data Analysis: qPCR data was imported into RealTime StatMiner software v4.2 for statistical analysis using the relative quantitation (RQ) method. In the first step of an RQ analysis, the CT value of the target gene is normalized to the CT value of an endogenous control gene for each sample to generate the delta CT (dCT).

BMP2 = conditions: gene BMP2 (bone morphogenetic protein 2); EFT-400 culture, 100 µL applied, 24 hours
Procedure: as §3, §4, §5, §6, §7

CALML5 = conditions: gene CALML5 (calmodulin-like 5); EFT-400 culture, 100 µL applied, 24 hours
Procedure: as §3, §4, §5, §6, §7

CDSN = conditions: gene CDSN (corneodesmosin); EFT-400 culture, 100 µL applied, 24 hours
Procedure: as §3, §4, §5, §6, §7

CLDN7 = conditions: gene CLDN7 (claudin 7); EFT-400 culture, 100 µL applied, 24 hours
Procedure: as §3, §4, §5, §6, §7

DSG3 = conditions: gene DSG3 (desmoglein 3); EFT-400 culture, 100 µL applied, 24 hours
Procedure: as §3, §4, §5, §6, §7

FLG = conditions: gene FLG (filaggrin); EFT-400 culture, 100 µL applied, 24 hours
Procedure: as §3, §4, §5, §6, §7

HSP-47 = conditions: EFT-400 culture, 100 µL applied, 24 hours; values only in Fig. 5
Procedure: as §3, §4, §5, §6, §7

IL8 = conditions: gene IL8 (interleukin 8); EFT-400 culture, 100 µL applied, 24 hours
Procedure: as §3, §4, §5, §6, §7

ILIA = conditions: gene ILIA (interleukin 1, alpha); EFT-400 culture, 100 µL applied, 24 hours
Procedure: as §3, §4, §5, §6, §7

ITGB4 = conditions: gene ITGB4 (integrin, beta 4); EFT-400 culture, 100 µL applied, 24 hours
Procedure: as §3, §4, §5, §6, §7

KLK5 = conditions: gene KLK5 (kallikrein-related peptidase 5); EFT-400 culture, 100 µL applied, 24 hours
Procedure: as §3, §4, §5, §6, §7

KRT10 = conditions: gene KRT10 (keratin 10); EFT-400 culture, 100 µL applied, 24 hours
Procedure: as §3, §4, §5, §6, §7

KRT4 = conditions: gene KRT4 (keratin 4); EFT-400 culture, 100 µL applied, 24 hours
Procedure: as §3, §4, §5, §6, §7

LCE3D = conditions: gene LCE3D (late cornified envelope 3D); EFT-400 culture, 100 µL applied, 24 hours
Procedure: as §3, §4, §5, §6, §7

LOR = conditions: gene LOR (loricrin); EFT-400 culture, 100 µL applied, 24 hours
Procedure: as §3, §4, §5, §6, §7

MKI67 = conditions: gene MKI67 (antigen identified by Ki-67 antibody); EFT-400 culture, 100 µL applied, 24 hours
Procedure: as §3, §4, §5, §6, §7

PPARD = conditions: gene PPARD (peroxisome proliferator-activated receptor); EFT-400 culture, 100 µL applied, 24 hours
Procedure: as §3, §4, §5, §6, §7

PTGS2 = conditions: gene PTGS2 (Prostaglandin endoperoxide synthase 2/ COX2); EFT-400 culture, 100 µL applied, 24 hours
Procedure: as §3, §4, §5, §6, §7

TGFB1 = conditions: gene TGFB1 (transforming growth factor, beta 1); EFT-400 culture, 100 µL applied, 24 hours
Procedure: as §3, §4, §5, §6, §7

TNF = conditions: gene TNF (tumor necrosis factor (TNFsuperfamily,member)); EFT-400 culture, 100 µL applied, 24 hours
Procedure: as §3, §4, §5, §6, §7

TP63 = conditions: gene TP63 (tumor protein p63); EFT-400 culture, 100 µL applied, 24 hours
Procedure: as §3, §4, §5, §6, §7

## test composition containing peptide of SEQ ID No. 1: peptide of SEQ ID No. 1 linked to oleanolic acid represented by STR#1; pentapeptide conjugate of oleanolic acid (KTTKS; also: linked to oleanolic acid, place not given here)
[1]
  TGF- β expression in human dermal fibroblasts: increase
Fibroblast Growth Factor
  fibroblast growth factor expression in human dermal fibroblasts: increase
HSP-90
  skin expression of HSP-90 gene: Up-regulation
LOX
  skin expression of LOX gene: Up-regulation
TIMP
  skin expression of TIMP gene: Up-regulation
AQP5
  Fold Increase: 1.97 Fold
BMP2
  Fold Increase: 1.80 Fold
CALML5
  Fold Increase: 1.91 Fold
CDSN
  Fold Increase: 1.78 Fold
CLDN7
  Fold Increase: 1.69 Fold
DSG3
  Fold Increase: 2.19 Fold
FLG
  Fold Increase: 2.23 Fold
HSP-47
  skin expression of HSP-47 gene: Up-regulation
IL8
  Fold Decrease: -1.68 Fold
ILIA
  Fold Decrease: -1.77 Fold
ITGB4
  Fold Increase: 1.76 Fold
KLK5
  Fold Increase: 2.44 Fold
KRT10
  Fold Decrease: -1.71 Fold
KRT4
  Fold Decrease: -2.11 Fold
LCE3D
  Fold Increase: 1.61 Fold
LOR
  Fold Increase: 1.63 Fold
MKI67
  Fold Increase: 1.83 Fold
PPARD
  Fold Increase: 1.59 Fold
PTGS2
  Fold Decrease: -1.80 Fold
TGFB1
  Fold Increase: 1.72 Fold
TNF
  Fold Decrease: -4.34 Fold
TP63
  Fold Increase: 1.56 Fold
